The values that follow come from patent US7576215B2, “Quinolines and pharmaceutical compositions thereof” (Wyeth, priority 2003, dated 2009).

As to `O=C(Nc1ccc(Cl)cc1)c1cnc2c(C(F)(F)F)cccc2c1-c1ccccc1` [Example 372, N-(4-CHLOROPHENYL)-4-PHENYL-8-(TRIFLUOROMETHYL)QUINOLINE-3-CARBOXAMIDE], the melting point (as a rule, the temperature of the solid-liquid transition) was in the range of 153 to 155 °C.
The figure for `FC(F)(F)c1cccc2c(-c3ccccc3)c(-c3ccccc3)cnc12` [Example 390, 3,4-DIPHENYL-8-(TRIFLUOROMETHYL)QUINOLINE] is 138 to 140 °C; for `CN(C(=O)c1cnc2c(C(F)(F)F)cccc2c1-c1ccccc1)c1ccc(F)cc1` [Example 388, N-(4-FLUOROPHENYL)-N-METHYL-4-PHENYL-8-(TRIFLUOROMETHYL)QUINOLINE-3-CARBOXAMIDE] it is 138 to 140 °C; for `CCc1ccc(N(C)C(=O)c2cnc3c(C(F)(F)F)cccc3c2-c2ccccc2)cc1` [Example 385, N-(4-ETHYLPHENYL)-N-METHYL-4-PHENYL-8-(TRIFLUOROMETHYL)QUINOLINE-3-CARBOXAMIDE] it is 136 to 138 °C.
Molecule `CN(C(=O)c1cnc2c(C(F)(F)F)cccc2c1-c1ccccc1)c1cccc(F)c1` [Example 389, N-(3-FLUOROPHENYL)-N-METHYL-4-PHENYL-8-(TRIFLUOROMETHYL)QUINOLINE-3-CARBOXAMIDE] came in with a melting point of 200 to 202 °C.
Molecule `Cc1cccc(N(C)C(=O)c2cnc3c(C(F)(F)F)cccc3c2-c2ccccc2)c1` [Example 379, N-METHYL-N-(3-METHYLPHENYL)-4-PHENYL-8-(TRIFLUOROMETHYL)QUINOLINE-3-CARBOXAMIDE] registered a melting point of 174 to 176 °C.
Then `Oc1ccc(F)c(-c2c(-c3ccccc3)cnc3c(C(F)(F)F)cccc23)c1` [Example 412, 4-FLUORO-3-[3-PHENYL-8-(TRIFLUOROMETHYL)QUINOLIN-4-YL]PHENOL], with 85 °C; and `O=C(Nc1cccc(F)c1)c1cnc2c(C(F)(F)F)cccc2c1-c1ccccc1` [Example 377, N-(3-FLUOROPHENYL)-4-PHENYL-8-(TRIFLUOROMETHYL)QUINOLINE-3-CARBOXAMIDE], with 171 to 173 °C.
Then `O=C(Nc1cccc(C(F)(F)F)c1)c1cnc2c(C(F)(F)F)cccc2c1-c1ccccc1` [Example 371, 4-PHENYL-8-(TRIFLUOROMETHYL)-N-[3-(TRIFLUOROMETHYL)PHENYL]QUINOLINE-3-CARBOXAMIDE], with 155 to 157 °C.
For `O=S(=O)(c1ccccc1)c1cnc2c(C(F)(F)F)cccc2c1-c1ccccc1`, the melting point was in the range of 149 to 151 °C.
Then `Oc1cc(-c2c(-c3ccccc3)cnc3c(C(F)(F)F)cccc23)ccc1Cl` [Example 392, 2-CHLORO-5-[3-PHENYL-8-(TRIFLUOROMETHYL)QUINOLIN-4-YL]PHENOL], with 252 °C; and `Oc1cccc(-c2c(-c3ccccc3)cnc3c(C(F)(F)F)cccc23)c1` [Example 391, 3-[3-PHENYL-8-(TRIFLUOROMETHYL)QUINOLIN-4-YL]PHENOL], with 123 °C; and `Cc1cccc(NC(=O)c2cnc3c(C(F)(F)F)cccc3c2-c2ccccc2)c1` [Example 370, N-(3-METHYLPHENYL)-4-PHENYL-8-(TRIFLUOROMETHYL)QUINOLINE-3-CARBOXAMIDE], with 182 to 184 °C.
The figure for `FC(F)(F)c1cccc2c(-c3ccccc3)c(Oc3ccccc3)cnc12` [Example 407, 3-PHENOXY-4-PHENYL-8-(TRIFLUOROMETHYL)QUINOLINE] is 122 °C.
Molecule `OCCc1ccc(COc2cccc(-c3c(-c4ccccc4)cnc4c(C(F)(F)F)cccc34)c2)cc1` showed a melting point of 50 °C.
The figure for `CN(C(=O)c1cnc2c(C(F)(F)F)cccc2c1-c1ccccc1)c1ccc(Cl)cc1` [Example 383, N-(4-CHLOROPHENYL)-N-METHYL-4-PHENYL-8-(TRIFLUOROMETHYL)QUINOLINE-3-CARBOXAMIDE] is 177 to 179 °C; for `O=C(O)c1ccc(COc2cccc(-c3c(-c4ccccc4)cnc4c(C(F)(F)F)cccc34)c2)cc1` [Example 512, 4-({3-[3-PHENYL-8-(TRIFLUOROMETHYL)QUINOLIN-4-YL]PHENOXY}METHYL)BENZOIC ACID] it is 108 to 112 °C; for `FC(F)(F)c1cccc2c(-c3ccccc3)c(Sc3ccccc3)cnc12` [Example 411, 4-PHENYL-3-(PHENYLTHIO)-8-(TRIFLUOROMETHYL)QUINOLINE] it is 139 to 141 °C.
As to `O=C(Nc1ccccc1Cl)c1cnc2c(C(F)(F)F)cccc2c1-c1ccccc1` [Example 374, N-(2-CHLOROPHENYL)-4-PHENYL-8-(TRIFLUOROMETHYL)QUINOLINE-3-CARBOXAMIDE], the melting point is 173 to 175 °C.
Molecule `Cc1nc2c(C(F)(F)F)cccc2c(-c2ccccc2)c1C(=O)c1ccccc1` [Example 477, [2-METHYL-4-PHENYL-8-(TRIFLUOROMETHYL)QUINOLIN-3-YL](PHENYL)METHANONE] had a melting point of 175 to 177 °C.
Take `COC(=O)/C=C/c1ccc(COc2cccc(-c3c(-c4ccccc4)cnc4c(C(F)(F)F)cccc34)c2)cc1`: the melting point stood at 91 °C.
The figure for `O=C(Nc1ccc(F)cc1)c1cnc2c(C(F)(F)F)cccc2c1-c1ccccc1` [Example 376, N-(4-FLUOROPHENYL)-4-PHENYL-8-(TRIFLUOROMETHYL)QUINOLINE-3-CARBOXAMIDE] is 157 to 159 °C; for `Cc1ccccc1N(C)C(=O)c1cnc2c(C(F)(F)F)cccc2c1-c1ccccc1` [Example 381, N-METHYL-N-(2-METHYLPHENYL)-4-PHENYL-8-(TRIFLUOROMETHYL)QUINOLINE-3-CARBOXAMIDE] it is 144 °C; for `CN(C(=O)c1cnc2c(C(F)(F)F)cccc2c1-c1ccccc1)c1cccc(Cl)c1` [Example 384, N-(3-CHLOROPHENYL)-N-METHYL-4-PHENYL-8-(TRIFLUOROMETHYL)QUINOLINE-3-CARBOXAMIDE] it is 211 to 213 °C.
Then `COC(=O)/C=C/c1ccc(COc2cc(-c3c(-c4ccccc4)cnc4c(C(F)(F)F)cccc34)ccc2Cl)cc1`, with 149 to 151 °C.
In turn, `CN(C(=O)c1cnc2c(C(F)(F)F)cccc2c1-c1ccccc1)c1ccccc1` [Example 378, N-METHYL-N,4-DIPHENYL-8-(TRIFLUOROMETHYL)QUINOLINE-3-CARBOXAMIDE] yielded a melting point of 188 to 190 °C.
Turning to `Cc1ccccc1-c1cnc2c(C(F)(F)F)cccc2c1-c1cccc(NC(=O)Nc2ccccc2F)c1` [Example 573, N-(2-FLUOROPHENYL)-N′-{3-[3-(2-METHYLPHENYL)-8-(TRIFLUOROMETHYL)QUINOLIN-4-YL]PHENYL}UREA], the melting point lay in the range of 218 to 220 °C.
The figure for `O=C(Nc1ccccc1)c1cnc2c(C(F)(F)F)cccc2c1-c1ccccc1` [Example 72, N, 4-DIPHENYL-8-(TRIFLUOROMETHYL)QUINOLINE-3-CARBOXAMIDE] is 207 to 208 °C; for `CN(C(=O)c1cnc2c(C(F)(F)F)cccc2c1-c1ccccc1)c1cccc(C(F)(F)F)c1` [Example 382, N-METHYL-4-PHENYL-8-(TRIFLUOROMETHYL)-N-[3-(TRIFLUOROMETHYL)PHENYL]QUINOLINE-3-CARBOXAMIDE] it is 163 to 165 °C; for `O=C(Nc1cccc(-c2c(-c3ccccc3)cnc3c(C(F)(F)F)cccc23)c1)Nc1ccccc1Cl` [Example 76, N-(2-CHLOROPHENYL)-N′-{3-[3-PHENYL-8-(TRIFLUOROMETHYL)QUINOLIN-4-YL]PHENYL}UREA] it is 192 to 195 °C.
